# From patent publication US20100278897A1, “INTRAOCULAR BIOACTIVE AGENT DELIVERY SYSTEM WITH MOLECULAR PARTITIONING SYSTEM” (ALLERGAN, INC., priority 2009, published 2010)
# Assay: Elimination of Compound A from the eye
# Format: in vivo
# Conditions: intraocular
structure (smiles),measurement,value
Cc1ccoc1C(=O)Nc1cccc(C#Cc2cncc(C(=O)N=[S@](=O)(CCCN3CCN(CCOCCO)CC3)c3ccccc3)c2)c1 [Compound A],half-life of elimination from the eye,a few hours
